Data set [1] is described as follows: Isoflurane concentration and loss over time measured by ATR-FTIR (1300-1260 cm^-1). The following applies: exposed to air. It is filed as physicochemical. On the procedure: In accordance with the present example, ATR-FTIR spectra were recorded on a PerkinElmer Spectrum 100 FTIR spectrometer equipped with a KBr beam splitter, 1 bounce Universal Di/ZnSe ATR sampling accessory, and electronically, temperature-stabilized fast recovery deuterated triglycine sulfate detector. The spectra generated are an average of four scans at a resolution of 4 cm^−1. Emulsion samples of 50 μL each were obtained from each of the emulsions described below, and the emulsion samples were measured by covering the measurement surface. Standard curves were generated by manufacturing emulsions of known volume percentage isoflurane by gravimetric determination, performing ATR-FTIR measurements and then, taking area under the curve (“AUC”) determinations of peaks in the region specific to fluorine bond vibration (1300-1000 cm^−1). […]
From these peaks, measurements of the area under the curve (“AUC”) for each of the two spectral regions, once again, 1300-1260 cm^−1 and 1225-1011 cm^−1, were used to generate standard curves of isoflurane concentration. […] The two curves were generated to evaluate the possibility of isoflurane loss during the emulsification process, as a comparison between the two standard curves would allow for assessment of error in emulsion manufacture and allow for more accurate quantification. […]

The test system of data set [2] is Murine insulinoma beta-TC3 (β-TC3) cells. Nature of the data set: Anesthetic preconditioning against H2O2 oxidative stress, cell viability by FACS. It is filed as cell-based. On the procedure: Murine insulinoma beta-TC3 (β-TC3) cells were used as a surrogate source of β-cells in vitro. […] FIG. 26 is illustrative of the experimental design for the present study. Cells were then harvested and assayed for viability via FACS analysis (Live/Dead far red, and TMRE, mitochondrial fluorescent dye to detect apoptosis). Data was analyzed using ANOVA with post hoc Tukey for multiple comparisons.

A further data set deals with p38 MAPK. Nature of the data set: p38 MAPK activity after H2O2 oxidative stress in β-TC3 cells. The data set is classed as cell-based, murine. On the procedure: Murine insulinoma beta-TC3 (β-TC3) cells were used as a surrogate source of β-cells in vitro. The β-TC3 cells were incubated for 48 hours, and then subdivided into four (4) groups, with three (3) series of cell cultures per group repeated in triplicate. Group 1 were sham cultured β-TC3 cells; group 2 cells were subdivided into those pre-treated with 0.5 mM isoflurane for 15 minutes or 60 minutes without H2O2, followed by an isoflurane washout; group 3 cells were exposed only to 0.3 mM H2O2 for 3 hours; group 4 cells were pre-treated with isoflurane for 15 minutes or 60 minutes, as in group 2, followed by an isoflurane washout and exposure to 0.3 mM H2O2 for 3 hours. FIG. 26 is illustrative of the experimental design for the present study.

Data set [3] in a line: Isoflurane concentration in stored emulsion measured by weight. It is filed as physicochemical. The following applies: open container, about 21° C. On the procedure:
A standard curve for determining isoflurane concentration was generated based upon 1 mL mixtures of a base solution, i.e., 2% w/v surfactant plus PBS or HBSS; 10% v/v FC-43; and, various known v/v % isoflurane concentrations. A 1 mL aliquot of each of these mixtures was weighed and compared to its expected weight based on the density of each component, and a predicted density of each mixture. The predicted or expected density of each mixture was determined by the following equation: ρexpected=ν%A*ρA+ν%BρB+ν%CρC
where ρ is the density, and A, B, C are the surfactant solution, PCF or FC-43, and isoflurane, respectively. FIG. 8 is a standard curve generated in accordance with the procedure of this example for the determination of isoflurane concentration by weight. The measured values were compared to the theoretical values, or ρexpected, and a high degree of correlation, R^2>0.99, was observed, as illustrated in FIG. 9.
From the standard curve generated of the mixtures, the content of isoflurane in any emulsion can be determined by weighing a known volume, for example, a 1 mL aliquot. and tabulating the known portions of the weight, e.g., the volume percentages of the base solution and PCF, i.e., FC-43, and calculating the unknown volume by dividing the remaining weight by the density of pure isoflurane. […]

For `FC(F)OC(Cl)C(F)(F)F` (centres unmarked) [isoflurane], the “time to complete evaporation on ATR-FTIR crystal” value in data set [1] is ≤ 10 s. The “β-TC3 cell survival compared to controls” value in data set [2] (0.5 mM isoflurane pretreatment 15 minutes, washout, then 0.3 mM H2O2 for 3 hours) is listed as 98±2%; in data set [2] (0.5 mM isoflurane pretreatment 60 minutes, washout, then 0.3 mM H2O2 for 3 hours), 105±0%. Further, the “p38 MAPK activity” value in the data set with p38 MAPK (isoflurane pretreatment, compared to cells exposed to H2O2 alone) is listed as “significantly decreased p38 MAPK activity”. Besides, the “time to essentially complete evaporation” value in data set [3] is “over 0.5 hours”. For the same molecule, the “fraction of sample evaporated” value in data set [3] (after about 0.2 hours) is ~50%.
Consider `OO` [H2O2, hydrogen peroxide], for which the “β-TC3 cell survival compared to controls” value in data set [2] (0.3 mM H2O2 for 3 hours alone) is listed as 44±13%. The “p38 MAPK activity” value in the data set on p38 MAPK (treatment by H2O2 alone) was “increased protein kinase activity”.

For the origin of these results see US9308269B2, “Stable liquid formulations of volatile gas anesthetics” (UNIVERSITY OF MIAMI, priority 2011, dated 2016).
